Assay results from patent publication US8637537B2, “Serine/threonine kinase inhibitors” (Genentech, Inc., priority 2011, dated 2014).
Where two headings read alike, the source gives them in different places.

Tests used:
[1] = test system: group I PAKs (PAK1-3) in EBC1 cells, MEK1 phosphorylation at S298; assay: Cellular PAK assay: MEK1 (S298) phosphorylation in EBC1 cells, HTRF; assay type: cell-based; conditions: Homo sapiens, EBC-1, 2 h treatment, Example 66
Method: Group I PAKs (PAK1-3) are activated upon binding to the Rho GTPases, Rac1 and Cdc42. […] The inhibition of group I PAKs in EBC1 cells is assessed by detecting changes in the level of MEK1 phosphorylation at S298 using homogenous time-resolved fluorescence (HTRF). […] Following inhibitor treatment, cells were lysed with 25 μL of 1× cellular kinase lysis buffer (Cisbio) containing 1× cellular kinase blocking reagent (Cisbio). Cellular lysis was carried out at 4° C. for 2 h with constant shaking before lysate (16 μL) was transferred to white 384-well ProxiPlates™ (Perkin Elmer).

[2] = target: T1, human recombinant GST-PAK1-KD protein (Homo sapiens, UniProt Q13153); assay: GST-PAK1-KD (kinase domain) biochemical assay, microfluidic mobility shift
T1 construct: residues #249-545 of human PAK1, UniProtKP/Swiss Q13153; His6 (N); made in house; host or cells: Sf9 insect cells, pAcGP67 baculovirus expression vector
T1 sequence (Q13153 249-545): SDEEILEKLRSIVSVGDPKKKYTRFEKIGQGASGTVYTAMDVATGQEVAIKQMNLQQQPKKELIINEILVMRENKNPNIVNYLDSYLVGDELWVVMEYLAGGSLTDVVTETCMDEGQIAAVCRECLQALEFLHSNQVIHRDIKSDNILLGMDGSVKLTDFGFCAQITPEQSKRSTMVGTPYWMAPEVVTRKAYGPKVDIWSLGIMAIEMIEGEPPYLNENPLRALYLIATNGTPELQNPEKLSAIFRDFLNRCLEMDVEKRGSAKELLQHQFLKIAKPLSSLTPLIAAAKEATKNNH

[3] = GST-PAK1-KD Inhibition Assay - Example 65, read-out: PAK1 inhibition Ki
[4] = Table II, PAK1 Ki class, read-out: Ki

Row | IC50 [1] [nM] | Ki [2, 3] [nM] | Ki [2, 4] [nM] | SMILES
1 | 66.1 | 2.5 | < 50 | CCN(Cc1ccc2[nH]cnc2c1Cl)c1nccc(Nc2cc([C@@H]3C[C@@H]3F)[nH]n2)n1 [II-51, N^2-((4-chloro-1H-benzo[d]imidazol-5-yl)methyl)-N^2-ethyl-N^4-(5-((1S,2S)-2-fluorocyclopropyl)-1H-pyrazol-3-yl)pyrimidine-2,4-diamine]
2 | 70.8 | 4.2 | < 50 | CC(CO)N(Cc1cc(F)cc2[nH]ncc12)c1nccc(Nc2cc(C3CC3)[nH]n2)n1 (stereo not drawn) [II-56, 2-((4-((5-cyclopropyl-1H-pyrazol-3-yl)amino)pyrimidin-2-yl)((6-fluoro-1H-indazol-4-yl)methyl)amino)propan-1-ol]
3 | 257 | 6 | < 50 | Fc1cc(CN(CCN2CCCC2)c2nccc(Nc3cc(C4CC4)[nH]n3)n2)c2cn[nH]c2c1 [II-59, N^4-(5-cyclopropyl-1H-pyrazol-3-yl)-N^2-((6-fluoro-1H-indazol-4-yl)methyl)-N^2-(2-(pyrrolidin-1-yl)ethyl)pyrimidine-2,4-diamine]
4 | 419 | 13 | < 50 | CN(C)CCN(Cc1cc(F)cc2[nH]ncc12)c1nccc(Nc2cc([C@@H]3C[C@@H]3F)[nH]n2)n1 [II-73, N^2-(2-(dimethylamino)ethyl)-N^2-((6-fluoro-1H-indazol-4-yl)methyl)-N^4-(5-((1S,2S)-2-fluorocyclopropyl)-1H-pyrazol-3-yl)pyrimidine-2,4-diamine]
5 | 189 | 13.6 | < 50 | COc1cc(CNc2nccc(Nc3cc(C4CC4)[nH]n3)n2)c2cn[nH]c2c1 [II-74, N^4-(5-cyclopropyl-1H-pyrazol-3-yl)-N^2-((6-methoxy-1H-indazol-4-yl)methyl)pyrimidine-2,4-diamine]
6 | 235 | 19.7 | < 50 | CN(Cc1ccc2[nH]cnc2c1Cl)c1nccc(Nc2cc(C(F)F)[nH]n2)n1 [II-81, N^2-((4-chloro-1H-benzo[d]imidazol-5-yl)methyl)-N^4-(5-(difluoromethyl)-1H-pyrazol-3-yl)-N^2-methylpyrimidine-2,4-diamine]
7 | 64.1 | 36.8 | < 50 | COCCN(Cc1cc(F)cc2[nH]ncc12)c1nccc(Nc2cc(C3CC3)[nH]n2)n1 [II-94, N^4-(5-cyclopropyl-1H-pyrazol-3-yl)-N^2-((6-fluoro-1H-indazol-4-yl)methyl)-N^2-(2-methoxyethyl)pyrimidine-2,4-diamine]
8 | 1700 | 41.7 | < 50 | CN(Cc1ccc2[nH]cnc2c1)c1nc(Nc2cc(C3CC3)[nH]n2)cc(C(C)(C)O)n1 [II-97, 2-[2-[(1H-Benzoimidazol-5-ylmethyl)-methyl-amino]-6-(5-cyclopropyl-1H-pyrazol-3-ylamino)-pyrimidin-4-yl]-propan-2-ol]
9 | 1500 | 63.3 | 50 to 250 | COCCc1cc(Nc2ccnc(N(C)Cc3ccc4[nH]cnc4c3Cl)n2)n[nH]1 [II-102, N^2-((4-chloro-1H-benzo[d]imidazol-5-yl)methyl)-N^4-(5-(2-methoxyethyl)-1H-pyrazol-3-yl)-N^2-methylpyrimidine-2,4-diamine]
